biological target: T1, active p38 alpha enzyme (Upstate Biotechnology) (Homo sapiens, UniProt Q16539); assay: p38α biochemical assay (ATP turnover, luminescent detection, Cambrex PKlight); conditions: p38α biochemical assay, Table 1 Biological Activity
T1 construct: purchased Upstate Biotechnology
Experimental: The p38α biochemical assay employed is based on measurement of total ATP turnover following enzyme incubation with substrate in the presence of ATP with the use of a luminescent detection reagent (Cambrex PKlight). The assays were performed in 1536-well white opaque plates.
The final volume was 7.5005 μL as prepared prepared from the addition of 5 ul of kinase reaction (p38 alpah+MapkapK2+ATP) with 0.0005 μL compound dissolved in DMSO, and 2.5 ul of the detection reagent. Assay buffer contains the following reagents to give final concentration in the assay: 200 mM Tris, 100 mM MgCl2, 1.5 mM EGTA, 4 mM CaCl2, 20 mM MOPS, 1 mM EDTA, 1% glycerol, 0.1% B-Mecaptoethanol, and 1 mg/ml BSA. Test compounds are pinned using proprietary pintool technology (Kalypsys, Inc) and delivered as […] amounts into the 5 ul mixture of active p38 alpha enzyme (Upstate Biotechnology) and MapkapK2 (Upstate Biotechnology) whole protein as a substrate for phosphorylation in the presence of 1.4 uM final concentration ATP. Reactions are incubated at 30C for 2 hours and detection reagent is added in 2.5 ul/well amounts. Assay is read using a Perkin Elmer Viewlux.

T1 sequence (Q16539 whole entry): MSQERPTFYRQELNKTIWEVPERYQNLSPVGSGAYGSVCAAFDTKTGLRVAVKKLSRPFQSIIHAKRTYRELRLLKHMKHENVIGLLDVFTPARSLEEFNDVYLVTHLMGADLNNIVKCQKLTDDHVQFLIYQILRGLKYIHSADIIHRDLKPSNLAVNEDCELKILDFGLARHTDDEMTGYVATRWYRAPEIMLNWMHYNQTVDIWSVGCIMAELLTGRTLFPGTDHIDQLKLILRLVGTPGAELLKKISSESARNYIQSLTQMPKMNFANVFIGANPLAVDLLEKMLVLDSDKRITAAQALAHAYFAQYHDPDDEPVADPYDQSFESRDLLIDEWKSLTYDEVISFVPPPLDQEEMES

IC50	Structure (SMILES)
≤ 1000 nM	CNC(=O)c1csc(-c2sc(C)nc2-c2ccc(F)cc2)n1 [Example 47, 4′-(4-Fluoro-phenyl)-2′-methyl-|2,5′|bithiazolyl-4-carboxylic acid methylamide]
≤ 1000 nM	CCNC(=O)c1csc(-c2sc(C)nc2-c2ccc(F)cc2)n1 [Example 48, 4′-(4-Fluoro-phenyl)-2′-methyl-|2,5′|bithiazolyl-4-carboxylic acid ethylamide]
≤ 1000 nM	Cc1nc(-c2ccc(F)cc2)c(-c2nc(C(=O)NCCO)cs2)s1 [Example 49, 4′-(4-Fluoro-phenyl)-2′-methyl-|2,5′|bithiazolyl-4-carboxylic acid (2-hydroxy-ethyl)-amide]
≤ 1000 nM	COCCNC(=O)c1csc(-c2sc(C)nc2-c2ccc(F)cc2)n1 [Example 53, 4′-(4-Fluoro-phenyl)-2′-methyl-|2,5′|bithiazolyl-4-carboxylic acid (2-methoxy-ethyl)-amide]
≤ 1000 nM	CCNC(=O)c1csc(-c2c(-c3ccc(F)cc3)n[nH]c2C2CCNCC2)n1 [Example 63, 2-|3-(4-Fluoro-phenyl)-5-piperidin-4-yl-1H-pyrazol-4-yl|-thiazole-4-carboxylic acid ethylamide]
≤ 1000 nM	C#CCNC(=O)c1csc(-c2c(-c3ccc(F)cc3)n[nH]c2C2CCNCC2)n1 [Example 65, 2-|3-(4-Fluoro-phenyl)-5-piperidin-4-yl-1H-pyrazol-4-yl|-thiazole-4-carboxylic acid prop-2-ynylamide]
≤ 1000 nM	CCNC(=O)c1csc(-c2c(-c3ccc(F)cc3)n[nH]c2C)n1 [Example 72, 2-|3-(4-Fluoro-phenyl)-5-methyl-1H-pyrazol-4-yl|-thiazole-4-carboxylic acid ethylamide]
≤ 1000 nM	Cc1[nH]nc(-c2ccc(F)cc2)c1-c1nc(C(=O)NCc2ccc3c(c2)OCO3)cs1 [Example 74, 2-|3-(4-Fluoro-phenyl)-5-methyl-1H-pyrazol-4-yl|-thiazole-4-carboxylic acid (benzo|1,3|dioxol-5-yl methyl)-amide]
≤ 1000 nM	Cc1[nH]nc(-c2ccc(F)cc2)c1-c1nc(C(=O)NCc2ccccn2)cs1 [Example 75, 2-|3-(4-Fluoro-phenyl)-5-methyl-1H-pyrazol-4-yl|-thiazole-4-carboxylic acid (pyridin-2-ylmethyl)-amide]
≤ 1000 nM	Cc1[nH]nc(-c2ccc(F)cc2)c1-c1nc(C(=O)NCc2cccnc2)cs1 [Example 76, 2-|3-(4-Fluoro-phenyl)-5-methyl-1H-pyrazol-4-yl|-thiazole-4-carboxylic acid (pyridin-3-ylmethyl)-amide]
≤ 1000 nM	Cc1[nH]nc(-c2ccc(F)cc2)c1-c1nc(C(=O)NCc2ccncc2)cs1 [Example 77, 2-|3-(4-Fluoro-phenyl)-5-methyl-1H-pyrazol-4-yl|-thiazole-4-carboxylic acid (pyridin-4-ylmethyl)-amide]

Continued, molecule first:

Structure (SMILES)	IC50
CC(C)NC(=O)c1csc(-c2oc(CNC(=O)OC(C)(C)C)nc2-c2ccc(F)cc2)n1 [Example 43, |4-(4-Fluoro-phenyl)-5-(4-isopropylcarbamoyl-thiazol-2-yl)-oxazol-2-ylmethyl|-carbamic acid tert-butyl ester]	> 1000 nM
Cc1nc(-c2ccc(F)cc2)c(-c2nc(C(=O)NC3CCC3)cs2)s1 [Example 50, 4′-(4-Fluoro-phenyl)-2′-methyl-|2,5′|bithiazolyl-4-carboxylic acid cyclobutylamide]	≤ 1000 nM
Cc1nc(-c2ccc(F)cc2)c(-c2nc(C(=O)NCC3CC3)cs2)s1 [Example 51, 4′-(4-Fluoro-phenyl)-2′-methyl-|2,5′|bithiazolyl-4-carboxylic acid cyclopropylmethyl-amide]	≤ 1000 nM
Cc1nc(-c2ccc(F)cc2)c(-c2nc(C(=O)NCCCO)cs2)s1 [Example 52, 4′-(4-Fluoro-phenyl)-2′-methyl-|2,5′|bithiazolyl-4-carboxylic acid (3-hydroxy-propyl)-amide]	≤ 1000 nM
CCC(CO)NC(=O)c1csc(-c2sc(C)nc2-c2ccc(F)cc2)n1 (centres unmarked) [Example 54, 4′-(4-Fluoro-phenyl)-2′-methyl-|2,5′|bithiazolyl-4-carboxylic acid (1-hydroxymethyl-propyl)-amide]	≤ 1000 nM
Cc1nc(-c2ccc(F)cc2)c(-c2nc(C(=O)NCc3cccnc3)cs2)s1 [Example 55, 4′-(4-Fluoro-phenyl)-2′-methyl-|2,5′|bithiazolyl-4-carboxylic acid (pyridin-3-ylmethyl)-amide]	≤ 1000 nM
Cc1nc(-c2ccc(F)cc2)c(-c2nc(C(=O)NCc3ccccn3)cs2)s1 [Example 56, 4′-(4-Fluoro-phenyl)-2′-methyl-|2,5′|bithiazolyl-4-carboxylic acid (pyridin-2-ylmethyl)-amide]	≤ 1000 nM
Cc1nc(-c2ccc(F)cc2)c(-c2nc(C(=O)NCc3ccncc3)cs2)s1 [Example 57, 4′-(4-Fluoro-phenyl)-2′-methyl-|2,5′|bithiazolyl-4-carboxylic acid (pyridin-4-ylmethyl)-amide]	≤ 1000 nM
Cc1nc(-c2ccc(F)cc2)c(-c2nc(C(=O)NCCCN3CCOCC3)cs2)s1 [Example 58, 4′-(4-Fluoro-phenyl)-2′-methyl-|2,5′|bithiazolyl-4-carboxylic acid (3-morpholin-4-yl-propyl)-amide]	> 1000 nM
Cc1nc(-c2ccc(F)cc2)c(-c2nc(C(=O)NCc3ccc4c(c3)OCO4)cs2)s1 [Example 59, 4′-(4-Fluoro-phenyl)-2′-methyl-|2,5′|bithiazolyl-4-carboxylic acid (benzo|1,3|dioxol-5-ylmethyl)-amide]	≤ 1000 nM
COc1ccc(CNC(=O)c2csc(-c3sc(C)nc3-c3ccc(F)cc3)n2)cc1OC [Example 60, 4′-(4-Fluoro-phenyl)-2′-methyl-|2,5′|bithiazolyl-4-carboxylic acid 3,4-dimethoxy-benzylamide]	> 1000 nM
CC(C)NC(=O)c1csc(-c2c(-c3ccc(F)cc3)n[nH]c2C2CCNCC2)n1 [Example 61, 2-|3-(4-Fluoro-phenyl)-5-piperidin-4-yl-1H-pyrazol-4-yl|-thiazole-4-carboxylic acid isopropylamide]	≤ 1000 nM
O=C(NCc1cccnc1)c1csc(-c2c(-c3ccc(F)cc3)n[nH]c2C2CCNCC2)n1 [Example 67, 2-|3-(4-Fluoro-phenyl)-5-piperidin-4-yl-1H-pyrazol-4-yl|-thiazole-4-carboxylic acid (pyridin-3-ylmethyl)-amide]	≤ 1000 nM
O=C(NCC1CC1)c1csc(-c2c(-c3ccc(F)cc3)n[nH]c2C2CCNCC2)n1 [Example 69, 2-|3-(4-Fluoro-phenyl)-5-piperidin-4-yl-1H-pyrazol-4-yl|-thiazole-4-carboxylic acid cyclopropylmethyl-amide]	≤ 1000 nM
O=C(O)c1csc(-c2c(-c3ccc(F)cc3)n[nH]c2C2CCNCC2)n1 [Example 70, 2-(3-(4-fluorophenyl)-5-(piperidin-4-yl)-1H-pyrazol-4-yl)thiazole-4-carboxylic acid]	> 1000 nM
CC(C)NC(=O)c1csc(-c2[nH]c(CN3CCOCC3)nc2-c2ccc(F)cc2)n1 [Example 80, 2-|5-(4-Fluoro-phenyl)-2-morpholin-4-ylmethyl-3H-imidazol-4-yl|-thiazole-4-carboxylic acid isopropylamide]	≤ 1000 nM
CC(C)NC(=O)c1csc(-c2[nH]c(CN(C)C)nc2-c2ccc(F)cc2)n1 [Example 81, 2-|2-Dimethylaminomethyl-5-(4-fluoro-phenyl)-3H-imidazol-4-yl|-thiazole-4-carboxylic acid isopropylamide]	≤ 1000 nM
C#CCNC(=O)c1csc(-c2[nH]c(CN3CCNCC3)nc2-c2ccc(F)cc2)n1 [Example 82, 2-|5-(4-Fluoro-phenyl)-2-piperazin-1-ylmethyl-3H-imidazol-4-yl|-thiazole-4-carboxylic acid prop-2-ynylamide]	≤ 1000 nM
CC(C)NC(=O)c1csc(-c2[nH]c(CN3CCNCC3)nc2-c2ccc(F)cc2)n1 [Example 83, 2-|5-(4-Fluoro-phenyl)-2-piperazin-1-ylmethyl-3H-imidazol-4-yl|-thiazole-4-carboxylic acid isopropylamide]	≤ 1000 nM
CC(C)NC(=O)c1csc(-c2[nH]c(CO)nc2-c2ccc(F)cc2)n1 [Example 84, 2-|5-(4-Fluoro-phenyl)-2-hydroxymethyl-3H-imidazol-4-yl|-thiazole-4-carboxylic acid isopropylamide]	≤ 1000 nM
CC(=O)NCc1nc(-c2ccc(F)cc2)c(-c2nc(C(=O)NC(C)C)cs2)[nH]1 [Example 85, 2-|2-(Acetylamino-methyl)-5-(4-fluoro-phenyl)-3H-imidazol-4-yl|-thiazole-4-carboxylic acid isopropylamide]	≤ 1000 nM
CC(C)NC(=O)c1csc(-c2c(-c3ccc(F)cc3)ncn2C)n1 [Example 86, 2-|5-(4-Fluoro-phenyl)-3-methyl-3H-imidazol-4-yl|-thiazole-4-carboxylic acid isopropylamide]	≤ 1000 nM
C#CCNC(=O)c1csc(-c2c(-c3ccc(F)cc3)ncn2C)n1 [Example 87, 2-|5-(4-Fluoro-phenyl)-3-methyl-3H-imidazol-4-yl|-thiazole-4-carboxylic acid prop-2-ynylamide]	≤ 1000 nM
CC(C)NC(=O)c1csc(-c2c(-c3ccc(F)cc3)ncn2C2CCN(Cc3ccccc3)CC2)n1 [Example 88, 2-|3-(1-Benzyl-piperidin-4-yl)-5-(4-fluoro-phenyl)-3H-imidazol-4-yl|-thiazole-4-carboxylic acid isopropylamide]	> 1000 nM

From patent publication US20060252807A1, “Novel ortho-terphenyl inhibitors of p38 kinase and methods of treating inflammatory disorders” (Kalypsys, Inc., priority 2005, published 2006)
